Measurements: article PMC11864979, “First-in-class ultralong-target-residence-time p38α inhibitors as a mitosis-targeted therapy for colorectal cancer” (Nature Cancer, 2025)
Values joined by “and” are separate entries in the source; they are usually repeats but may differ in a detail not shown here. Identical values can stand only once.

Key:
KAP^2D cells [1] = assay: western blot analysis of p38α signaling in KAP^2D cells; type: cell-based, mouse; details: 1 µM, 1 day
Method: Proteins were extracted from cells and organoids using radioimmunoprecipitation assay extraction buffer (50 mM Tris pH 8.0, 150 mM NaCl, 1% Triton X-100, 0.5% sodium deoxycholate, 0.1% SDS, 5 mM EDTA and 1 mM EGTA) supplemented with protease and phosphatase inhibitors (cOmplete and PhosSTOP, Roche). Protein concentrations were measured using the DC (detergent compatible) Protein Assay (Bio-Rad). Briefly, 20–30 µg of protein was separated by SDS–PAGE and transferred onto PVDF membranes (Immobilon-P, Millipore). Membranes were blocked in 5% BSA and Tris-buffered saline (TBS)–Tween buffer and then incubated with primary antibodies overnight at 4 °C and with horseradish peroxidase-conjugated secondary antibodies for 1 h at room temperature. All used antibodies and dilutions are listed in the Nature Portfolio Reporting Summary. The blots were visualized using the ChemiDoc MP Imaging System (BIO-RAD) and ImageLab version 5.2.1 software. Vinculin and β-actin were used as loading controls.

BAP organoids = assay: cell viability in BAP organoids; type: cell-based, mouse
Method: (§1) A total of 1,000–2,000 single cells were plated per well in white 96-well plates (Greiner) in culture medium containing 10% GFR Matrigel or Cultrex BME. The treatment with doxycycline (5 µg ml^−1), pharmacological inhibitors or corresponding volumes of DMSO was started 24 h after plating. Doxycycline was obtained from Sigma-Aldrich. […] Results were normalized to vehicle (DMSO) or to shNC. For cell-doubling assays, the cell number was quantified at the corresponding time points using Guava EasyCyte flow cytometer (Luminex, CytoSoft v5.2 software).

PDO3 = assay: cell viability in patient-derived CRC organoids PDO3; type: cell-based, human; details: Fig. 3d, replicates
Method: (§2) For in vitro treatment studies, organoids were mechanically dissociated and digested using TrypLE supplemented with 100 µg ml^−1 DNaseI and 10.5 µM Y-27632 dihydrochloride (Invitrogen) at 37 °C. A total of 1,000–2,000 single cells were plated per well in white 96-well plates (Greiner) in culture medium containing 10% GFR Matrigel or Cultrex BME. The treatment with doxycycline (5 µg ml^−1), pharmacological inhibitors or corresponding volumes of DMSO was started 24 h after plating. Doxycycline was obtained from Sigma-Aldrich. […] Cell viability was measured by means of CellTiter-Glo 3D or CellTiter-Glo 2.0 reagent (Promega) according to the manufacturers’ instructions and the Infinite M Plex reader (Tecan, i-control version 3.9.1 software). Results were normalized to vehicle (DMSO) or to shNC. For cell-doubling assays, the cell number was quantified at the corresponding time points using Guava EasyCyte flow cytometer (Luminex, CytoSoft v5.2 software).

KMP organoids = assay: cell viability in KMP organoids; type: cell-based, mouse
Method: as §1

PDO5 = assay: cell viability in patient-derived CRC organoids PDO5; type: cell-based, human; details: Fig. 3f, replicates
Method: as §2

PDO1 = assay: cell viability in patient-derived CRC organoids PDO1; type: cell-based, human; details: Fig. 3b, replicates
Method: as §2

PDO7 = assay: cell viability in patient-derived CRC organoids PDO7; type: cell-based, human; details: PDO7, 1 µM, 4 days
Method: as §2

KAP^2D cells [2] = assay: P-H3^S10 / α-tubulin staining, mitotic phases in KAP^2D cells; type: cell-based, mouse; details: replicates, experiment and repetition
Method: Immunofluorescence staining on cells and organoids was performed on glass coverslips or tissue culture chambers (Sarstedt). Organoids were plated in medium containing 10% Matrigel or Cultrex BME. The cultures were fixed with 4% paraformaldehyde and stained with specific antibodies and DAPI (Vector Labs). All used antibodies and dilutions are listed in the Nature Portfolio Reporting Summary. For analyzing DNA synthesis, the Molecular Probes Click-iT EdU Alexa Fluor 555 kit was used 24 h after EdU incorporation with DAPI counterstaining. SA-β-Gal staining of cells was performed in cell culture dishes (cells) or tissue culture chambers (organoids) after fixation with 0.5% glutaraldehyde as described above. Human cultures were incubated with X-Gal solution at pH 6.0 for ~4 h. […] Positive cells were quantified using ImageJ version 1.53a software. The analysis of mitosis was performed with an LSM800 Airyscan (Zeiss) microscope (ZEN version 3.0 software). An Airyscan autofilter processing was applied before image analysis.

PDO2 = assay: cell viability in patient-derived CRC organoids PDO2; type: cell-based, human; details: Fig. 3c, replicates
Method: as §2

p38α = p38α (Homo sapiens, UniProt Q16539); assay: target residence time (TRT) fluorescence polarization jump-dilution assay; type: binding
p38α, sequence (Q16539 whole entry): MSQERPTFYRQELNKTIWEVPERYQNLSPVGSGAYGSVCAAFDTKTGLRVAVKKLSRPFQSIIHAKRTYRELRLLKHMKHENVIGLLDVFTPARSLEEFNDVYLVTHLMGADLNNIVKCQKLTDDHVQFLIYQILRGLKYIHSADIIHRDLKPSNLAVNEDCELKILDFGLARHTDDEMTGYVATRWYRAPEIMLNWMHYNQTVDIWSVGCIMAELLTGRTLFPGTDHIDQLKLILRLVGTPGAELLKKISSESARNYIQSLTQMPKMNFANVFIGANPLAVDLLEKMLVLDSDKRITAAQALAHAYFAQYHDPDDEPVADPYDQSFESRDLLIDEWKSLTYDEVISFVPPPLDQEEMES
Method: TRTs were determined using a fluorescence polarization assay kit (Transcreener ADP, BellBrook Labs)[29]. […] The formed complex was ‘jump-diluted’ 1:100 (0.5 µl in 49.5 µl) in a 96-half-area-well plate with ATF2 (82 μM), ATP (40 μM) and ADP as the kinase assay detection reagents. The plate was measured every 3 min for 4 h. Fluorescence polarization was detected using the plate reader VictorNivo (PerkinElmer). The data were analyzed using the integrated rate equation in GraphPad Prism version 7.03 software. The residence time was calculated from the reciprocal value of koff.

## CNC(=O)c1ccc2c(c1)C(=O)c1ccc(Nc3ccc(F)c(NC(=O)C4CC4)c3)cc1CC2 [Compound 2015]
KAP^2D cells [1]
  MK2^T334 phosphorylation (in words): strongly reduced
BAP organoids; 4 days
  therapeutic effect in BAP organoids (in words): increased responsiveness
BAP organoids; Fig. 2j, 0,5 µM, replicates, 5 µM
  Cell viability (%): 18.53% and 25.34%
BAP organoids; Fig. 2j, 0,25 µM, replicates
  Cell viability (%): 71.10% and 78.07% and 119.22%
BAP organoids; Fig. 2j, 1 µM, replicates
  Cell viability (%): 28.06% and 32.78%
BAP organoids; Mus musculus, Fig. 2j, 0,5 µM, replicates
  viability at 5 µM: 21.1%
BAP organoids; Mus musculus, Fig. 2j, 1 µM, replicates
  viability at 1 µM: 29.7%
PDO3; 0,5 µM, 5 µM
  Cell viability (%): 69.11% and 51.45%
PDO3; 0,25 µM, 25 µM
  Cell viability (%): 56.63% and 78.13% and 87.76%
PDO3; 1 µM
  Cell viability (%): 56.28% and 48.78%
PDO3; Homo sapiens, 72 h, 0,5 µM
  viability at 5 µM: 50.1%
PDO3; Homo sapiens, 72 h, 1 µM
  viability at 1 µM: 53%
KMP organoids; 4 days
  therapeutic effect in KMP organoids (in words): increased responsiveness
KMP organoids; Fig. 2i, 0,5 µM, replicates, 5 µM
  Cell viability (%): 17.63% and 7.81% and 29.91%
KMP organoids; Fig. 2i, 0,25 µM, replicates
  Cell viability (%): 27.91% and 21.06%
KMP organoids; Fig. 2i, 1 µM, replicates
  Cell viability (%): 17.15% and 26.00%
KMP organoids; Mus musculus, Fig. 2i, 1 µM, replicates
  viability at 1 µM: 27.8%
PDO5; 0,5 µM, 5 µM
  Cell viability (%): 16.61% and 12.02%
PDO5; 0,25 µM, 25 µM
  Cell viability (%): 73.65% and 55.49%
PDO5; 1 µM
  Cell viability (%): 16.85% and 11.03%
PDO5; Homo sapiens, 1 µM
  viability at 1 µM: 12.7%
PDO1; 0.5 µM
  Cell viability (%): 8.84% and 9.77%
PDO1; 1 µM
  Cell viability (%): 9.82% and 5.19%
PDO1; Homo sapiens, 0.5 µM
  viability at 0.5 µM: 10.1%
PDO1; Homo sapiens, 1 µM
  viability at 1 µM: 7.92%
PDO7; Homo sapiens, 96 h, read-out: Cell viability (%)
  viability at 1 µM: 5.06%
PDO7; 1 µM
  Cell viability (%): 7.93% and 9.20%
KAP^2D cells [2]; Fig. 4f
  Anaphase, % (of fully P-H3S10+ cells): 0.00%
  Metaphase, % (of fully P-H3S10+ cells): 0.00%
  Multipolar mitosis, % (of fully P-H3S10+ cells): 75.00% and 72.55% and 66.43% and 67.83% and 80.50% and 84.38%
  Telophase, % (of fully P-H3S10+ cells): 1.72% and 0.65% and 0.70% and 0.00% and 1.89% and 0.78%
KAP^2D cells [2]; Fig. 4d
  P-H3S10+ cells, fully positive: 12.93% and 17.02% and 15.43% and 13.33% and 14.34% and 14.40%
  P-H3S10+ cells, partially positive: 12.04% and 13.24% and 14.13% and 9.97% and 10.28% and 12.15%
PDO2; 0,5 µM, 5 µM
  Cell viability (%): 17.11% and 9.01% and 7.93%
PDO2; 0,25 µM
  Cell viability (%): 30.33% and 26.25%
PDO2; 1 µM
  Cell viability (%): 8.07% and 8.23%
PDO2; Homo sapiens, 1 µM
  viability at 1 µM: 10.5%
p38α; Fig. 2e, replicates
  TRT: 4961.7 s and 5666.0 s and 5182.4 s
p38α; reciprocal of koff
  TRT: 5,270 s
